Test results published in patent publication EP0052437A1, “Antibacterial compounds, processes for their preparation and compositions containing them” (BEECHAM GROUP PLC, priority 1980, dated 1982).
Converted amounts (≈) assume the structure as drawn.

Tests used:
Type in all cases: cell-based
M. suipneumoniae JF 435 = experiment: Anti-mycoplasmal in vitro MIC; conditions: Mesomycoplasma hyopneumoniae, JF435, 144 h, Friis broth solidified with 0.9% agarose, 6 days incubation at 37°C
M. suipneumoniae NB12 = experiment: Anti-mycoplasmal in vitro MIC; conditions: Mesomycoplasma hyopneumoniae, 144 h, Friis broth solidified with 0.9% agarose, 6 days incubation at 37°C
[1] = tested on: M. suipneumoniae PW/C/210; experiment: Anti-mycoplasmal in vitro MIC; conditions: Mesomycoplasma hyopneumoniae, 144 h, Friis broth solidified with 0.9% agarose, 6 days incubation at 37°C
Strep. 2788-B = experiment: Human bacteria MIC; conditions: nutrient agar with 5% chocolated horse blood, 18 hours at 37°C
Description: (§1) The values were determined by serial dilutions in nutrient agar with 5% chocolated horse blood after incubations for 18 hours at 37 °C.

Strep. pneumoniae CN33 = experiment: Human bacteria MIC; conditions: Streptococcus pneumoniae, nutrient agar with 5% chocolated horse blood, 18 hours at 37°C
Description: as §1

[2] = tested on: Strep. pyogenes R80/421-A; experiment: Human bacteria MIC; conditions: Streptococcus pyogenes, nutrient agar with 5% chocolated horse blood, 18 hours at 37°C
Description: as §1

[3] = tested on: Haemophilus influenzae Wy21; experiment: Human bacteria MIC; conditions: nutrient agar with 5% chocolated horse blood, 18 hours at 37°C
Description: as §1

[4] = tested on: Haemophilus influenzae Q1; experiment: Human bacteria MIC; conditions: nutrient agar with 5% chocolated horse blood, 18 hours at 37°C
Description: as §1

[5] = tested on: M. bovigenitalium ATCC 14173; experiment: Anti-mycoplasmal in vitro MIC; conditions: 144 h, Friis broth solidified with 0.9% agarose, 6 days incubation at 37°C
Past. multocida PA1 = experiment: Veterinary bacteria MIC; conditions: Pasteurella multocida, Diagnostic Sensitivity Test Agar, 18 hours at 37°C
Description: (§2) The values were determined using a two fold serial dilutions.in Diagnostic Sensitivity Test Agar with an inoculum of 10^4 organisms and incubation for 18 hours at 37°C.

Staph. aureus Oxford = experiment: Veterinary bacteria MIC; conditions: Staphylococcus aureus, Diagnostic Sensitivity Test Agar, 18 hours at 37°C
Description: as §2

Bord. bronchiseptica BO9 = experiment: Veterinary bacteria MIC; conditions: Bordetella bronchiseptica, Diagnostic Sensitivity Test Agar, 18 hours at 37°C
Description: as §2

Staph. aureus 152 = experiment: Veterinary bacteria MIC; conditions: Staphylococcus aureus, Diagnostic Sensitivity Test Agar, 18 hours at 37°C
Description: as §2

E. Coli E1 = experiment: Veterinary bacteria MIC; conditions: Escherichia coli, Diagnostic Sensitivity Test Agar, 18 hours at 37°C
Description: as §2

[6] = tested on: Corynebacterium pyogenes CY1; experiment: Veterinary bacteria MIC; conditions: Trueperella pyogenes, Diagnostic Sensitivity Test Agar, 18 hours at 37°C
Description: as §2

[7] = tested on: Strep. suis (group D) SPS11; experiment: Veterinary bacteria MIC; conditions: Streptococcus suis, Diagnostic Sensitivity Test Agar, 18 hours at 37°C
Description: as §2

Past. haemolytica PA5 = experiment: Veterinary bacteria MIC; conditions: Mannheimia haemolytica, Diagnostic Sensitivity Test Agar, 18 hours at 37°C
Description: as §2

E. Coli NCTC 10418 = experiment: Veterinary bacteria MIC; conditions: Escherichia coli, NCTC10418, Diagnostic Sensitivity Test Agar, 18 hours at 37°C
Description: as §2

Staph. aureus B4 = experiment: Veterinary bacteria MIC; conditions: Staphylococcus aureus, Diagnostic Sensitivity Test Agar, 18 hours at 37°C
Description: as §2

M. suipneumoniae TAM 6N = experiment: Anti-mycoplasmal in vitro MIC; conditions: Mesomycoplasma hyopneumoniae, TAM6N, 144 h, Friis broth solidified with 0.9% agarose, 6 days incubation at 37°C
[8] = tested on: M. suipneumoniae ATCC 25095; experiment: Anti-mycoplasmal in vitro MIC; conditions: Mesomycoplasma hyopneumoniae, ATCC25095, 144 h, Friis broth solidified with 0.9% agarose, 6 days incubation at 37°C
[9] = tested on: Treponema hyodysenterial S77/10; experiment: Swine dysentery MIC (inhibition of β-haemolysis); conditions: 72 h, Strain S77/10, horse blood agar, 37°C for 3 days, anaerobic, lowest concentration to inhibit β-haemolysis
Description: (§3) The activity of the compounds of Examples 2 and 3 against various strains of Treponema hyodysenterial, associated with swine dysentry, were determined.
(§4) MIC values (µg/ml) of the compounds were determined by incorporating the compounds in horse blood agar, inoculating (multi-point) with 0.001 ml of 3 day growth from base of blood slope (+ 1 ml foetal calf serum) and incubating at 37°C for 3 days under aneorobic conditions (Gas Pak 150). The MIC values were taken as the lowest concentrations to inhibit β-haemolysis.

[10] = tested on: Treponema hyodysenterial Navis; experiment: Swine dysentery MIC (inhibition of β-haemolysis); conditions: 72 h, Strain Navis, horse blood agar, 37°C for 3 days, anaerobic, lowest concentration to inhibit β-haemolysis
Description: as §3, §4

[11] = tested on: Treponema hyodysenterial B10; experiment: Swine dysentery MIC (inhibition of β-haemolysis); conditions: 72 h, Strain B10, horse blood agar, 37°C for 3 days, anaerobic, lowest concentration to inhibit β-haemolysis
Description: as §3, §4

[12] = tested on: Treponema hyodysenterial P23; experiment: Swine dysentery MIC (inhibition of β-haemolysis); conditions: 72 h, Strain P23, horse blood agar, 37°C for 3 days, anaerobic, lowest concentration to inhibit β-haemolysis
Description: as §3, §4

[13] = tested on: Treponema hyodysenterial S77/2; experiment: Swine dysentery MIC (inhibition of β-haemolysis); conditions: 72 h, Strain S77/2, horse blood agar, 37°C for 3 days, anaerobic, lowest concentration to inhibit β-haemolysis
Description: as §3, §4

M. bovis NCTC 10131 = experiment: microbe, parasite or virus in culture; conditions: NCTC10131, 144 h
[14] = tested on: Treponema hyodysenterial TH3; experiment: Swine dysentery MIC (inhibition of β-haemolysis); conditions: 72 h, Strain TH3, horse blood agar, 37°C for 3 days, anaerobic, lowest concentration to inhibit β-haemolysis
Description: as §3, §4

[15] = tested on: Treponema hyodysenterial S73/2; experiment: Swine dysentery MIC (inhibition of β-haemolysis); conditions: 72 h, Strain S73/2, horse blood agar, 37°C for 3 days, anaerobic, lowest concentration to inhibit β-haemolysis
Description: as §3, §4

Row | SMILES | MIC (M. suipneumoniae JF 435) [µg/mL] | MIC (M. suipneumoniae NB12) [µg/mL] | MIC [1] [µg/mL] | MIC (Strep. 2788-B) [µg/mL] | MIC (Strep. pneumoniae CN33) [µg/mL] | MIC [4] [µg/mL] | MIC [5] [µg/mL] | MIC (Past. multocida PA1) [µg/mL] | MIC (Staph. aureus Oxford) [µg/mL] | MIC (Bord. bronchiseptica BO9) [µg/mL] | MIC (Staph. aureus 152) [µg/mL] | MIC (E. Coli E1) [µg/mL] | MIC [6] [µg/mL] | MIC [7] [µg/mL] | MIC (Past. haemolytica PA5) [µg/mL] | MIC (E. Coli NCTC 10418) [µg/mL] | MIC (Staph. aureus B4) [µg/mL] | MIC (M. suipneumoniae TAM 6N) [µg/mL] | MIC [8] [µg/mL] | MIC (M. bovis NCTC 10131) [µg/mL] | also measured
1 | C/C(=C\C(=O)OCc1ccccc1C#N)CC1OCC(CC2OC2C(C)C(C)O)C(O)C1O (centres unmarked) [Example 1, o-Cyanobenzyl monate A] | 1 (≈ 2.18 µM) | 0.5 (≈ 1.09 µM) | 0.5 (≈ 1.09 µM) | 5 (≈ 10.9 µM) | 1 (≈ 2.18 µM) | 0.25 (≈ 0.544 µM) | ≤ 0.01 | 1.25 (≈ 2.72 µM) | 1.25 (≈ 2.72 µM) | 10 (≈ 21.8 µM) | 1.25 (≈ 2.72 µM) | > 80 | > 80 | 10 (≈ 21.8 µM) | 10 (≈ 21.8 µM) | > 80 | 1.25 (≈ 2.72 µM) | 2.5 (≈ 5.44 µM) | 0.5 (≈ 1.09 µM) | – | MIC [2]: 0.5 µg/mL (≈ 1.09 µM); MIC [3]: 0.25 µg/mL (≈ 0.544 µM)
2 | C/C(=C\C(=O)OCc1cccc(C#N)c1)CC1OCC(CC2OC2C(C)C(C)O)C(O)C1O (centres unmarked) [Example 2, m-Cyanobenzyl monate A] | 0.1 (≈ 0.218 µM) | 0.05 (≈ 0.109 µM) | 0.05 (≈ 0.109 µM) | – | 0.5 (≈ 1.09 µM) | 0.1 (≈ 0.218 µM) | ≤ 0.01 | 0.625 (≈ 1.36 µM) | 0.625 (≈ 1.36 µM) | 10 (≈ 21.8 µM) | 0.625 (≈ 1.36 µM) | 80 (≈ 174 µM) | > 80 | 2.5 (≈ 5.44 µM) | 2.5 (≈ 5.44 µM) | 80 (≈ 174 µM) | 1.25 (≈ 2.72 µM) | 0.1 (≈ 0.218 µM) | 0.05 (≈ 0.109 µM) | ≤ 0.01 | MIC [3]: 0.1 µg/mL (≈ 0.218 µM); MIC [9]: 10 µg/mL (≈ 21.8 µM); MIC [10]: 10 µg/mL (≈ 21.8 µM); MIC [11]: 10 µg/mL (≈ 21.8 µM); MIC [12]: 10 µg/mL (≈ 21.8 µM); MIC [13]: 10 µg/mL (≈ 21.8 µM)
3 | C/C(=C\C(=O)OCc1ccc(C#N)cc1)CC1OCC(CC2OC2C(C)C(C)O)C(O)C1O (centres unmarked) [Example 3, p-Cyanobenzyl monate A] | 0.25 (≈ 0.544 µM) | 0.25 (≈ 0.544 µM) | 0.1 (≈ 0.218 µM) | 0.5 (≈ 1.09 µM) | 0.25 (≈ 0.544 µM) | 0.1 (≈ 0.218 µM) | ≤ 0.01 | 0.625 (≈ 1.36 µM) | 0.312 (≈ 0.679 µM) | 10 (≈ 21.8 µM) | 0.312 (≈ 0.679 µM) | 80 (≈ 174 µM) | > 80 | 2.5 (≈ 5.44 µM) | 2.5 (≈ 5.44 µM) | 80 (≈ 174 µM) | 0.625 (≈ 1.36 µM) | 0.25 (≈ 0.544 µM) | 0.25 (≈ 0.544 µM) | < 0.01 | MIC [2]: 0.1 µg/mL (≈ 0.218 µM); MIC [9]: 10 µg/mL (≈ 21.8 µM); MIC [14]: 5 µg/mL (≈ 10.9 µM); MIC [10]: 10 µg/mL (≈ 21.8 µM); MIC [11]: 20 µg/mL (≈ 43.5 µM); MIC [12]: 40 µg/mL (≈ 87 µM); MIC [15]: 5 µg/mL (≈ 10.9 µM); MIC [13]: 10 µg/mL (≈ 21.8 µM)
4 | C/C(=C\C(=O)OC(C)c1ccc(C#N)cc1)CC1OCC(CC2OC2C(C)C(C)O)C(O)C1O (centres unmarked) [Example 4, 1-(p-Cyanophenyl)ethyl monate A] | 1 (≈ 2.11 µM) | 1 (≈ 2.11 µM) | 1 (≈ 2.11 µM) | 5 (≈ 10.6 µM) | 2.5 (≈ 5.28 µM) | 0.5 (≈ 1.06 µM) | 0.025 (≈ 0.0528 µM) | 10 (≈ 21.1 µM) | 2.5 (≈ 5.28 µM) | 20 (≈ 42.2 µM) | 5 (≈ 10.6 µM) | > 80 | > 80 | 20 (≈ 42.2 µM) | 40 (≈ 84.5 µM) | > 80 | 10 (≈ 21.1 µM) | 2.5 (≈ 5.28 µM) | 1 (≈ 2.11 µM) | ≤ 0.01 | MIC [3]: 0.5 µg/mL (≈ 1.06 µM)
5 | C/C(=C\C(=O)OCc1cccc(C#N)c1)CC1OCC(C/C=C/C(C)C(C)O)C(O)C1O (centres unmarked) [Example 5, m-Cyanobenzyl monate C] | 1 (≈ 2.25 µM) | 0.5 (≈ 1.13 µM) | 0.5 (≈ 1.13 µM) | 5 (≈ 11.3 µM) | – | – | 0.1 (≈ 0.225 µM) | 10 (≈ 22.5 µM) | 2.5 (≈ 5.64 µM) | 20 (≈ 45.1 µM) | 2.5 (≈ 5.64 µM) | > 80 | > 80 | > 80 | 40 (≈ 90.2 µM) | > 80 | 2.5 (≈ 5.64 µM) | 1 (≈ 2.25 µM) | 0.5 (≈ 1.13 µM) | 0.05 (≈ 0.113 µM) | MIC [2]: 2.5 µg/mL (≈ 5.64 µM); MIC [3]: 2.5 µg/mL (≈ 5.64 µM)
6 | C/C(=C\C(=O)OCc1cc(C#N)cc(C#N)c1)CC1OCC(CC2OC2C(C)C(C)O)C(O)C1O (centres unmarked) [Example 6, 3,5-Dicyanobenzyl monate A] | 0.1 (≈ 0.206 µM) | 0.1 (≈ 0.206 µM) | 0.05 (≈ 0.103 µM) | – | – | 0.5 (≈ 1.03 µM) | 0.025 (≈ 0.0516 µM) | 5 (≈ 10.3 µM) | 5 (≈ 10.3 µM) | 40 (≈ 82.6 µM) | 5 (≈ 10.3 µM) | > 80 | > 80 | 40 (≈ 82.6 µM) | 10 (≈ 20.6 µM) | > 80 | 5 (≈ 10.3 µM) | 0.1 (≈ 0.206 µM) | 0.05 (≈ 0.103 µM) | 0.025 (≈ 0.0516 µM) | MIC [2]: 1 µg/mL (≈ 2.06 µM)
